The subject of data set [1] is Male Sprague-Dawley rats. In words: Open-field locomotor activity in rats. The following applies: for sedative or hypnotic effects (locomotor activity): compared with diazepam or triazolam; for Antianxiety/sedation: ratio of lowest effective anxiolytic dose (situational anxiety) and lowest effective dose producing side effects in locomotor activity, PO. Here is the method: Open-Field Locomotor Activity in Rats
Male Sprague-Dawley rats, weighing 250-290 grams at the beginning of the experiment were purchased from Charles River Laboratories (Wilmington, Mass.). The animals were housed in groups of four in a colony room maintained at constant temperature (21±2° C.) and humidity (50±10%). The room was illuminated 12 hours per day (lights on at 0600 h). The rats had ad libitum access to food and water. The testing apparatus consisted of Plexiglas chambers (42×42×30 cm) equipped with Digiscan activity monitors (Omnitech Electronics, Columbus, Ohio) that detect interruptions of 16 photobeams spaced 2.5 cm apart and 2.5 cm above the floor. Horizontal activity was monitored for 60 minutes.
(§1) Drug Administration: All drugs were administered PO 20-60 minutes before behavioral testing.
(§2) Data Analysis: Results were expressed as the mean±1 SEM. All data were subjected to analysis of variance (ANOVA) followed by individual mean comparisons using Fisher's Least Significant Difference Test (Kirk, 1968) where appropriate. The significance level was set at p<0.05.
Rats were placed in an open field and the total distance covered by the rat was measured. The test duration was 60 minutes. Compounds producing sedative effects decrease the distance covered.

Data set [2] relates to Male Sprague-Dawley rats. Nature of the data set: Rotorod performance in rats. The conditions noted are these: for ataxia (rotorod): compared with diazepam or triazolam; for Antianxiety/ataxia: ratio of lowest effective anxiolytic dose (situational anxiety) and lowest effective dose producing side effects in rotorod, PO. The protocol: Rotorod Performance in Rats
Male Sprague-Dawley rats, weighing 180-200 grams at the beginning of the experiment were purchased from Charles River Laboratories (Wilmington, Mass.). The animals were housed in groups of four in a colony room maintained at constant temperature (21±2° C.) and humidity (50±10%). The room was illuminated 12 hours per day (lights on at 0600 h). The rats had ad libitum access to food and water. The degree of muscle coordination or balance (i.e., ataxia) was determined using a standard accelerating rotorod treadmill (Ugo Basile, Comerio-Varese, Italy or Columbus Instruments, Columbus, Ohio) that was 6 cm in diameter, 24 cm above the base, and run from an initial speed of 2 rpm to a maximum speed of 20 rpm. The time each animal remained on the rotating rod was automatically recorded, up to a maximum of 5 minutes.
as §1, §2
The time on the rod for each rat was recorded. Compounds producing ataxia (motor incoordination) decrease the time spent on the rod compared with vehicle-treated animals.
Background: Falling from the rotarod earlier than controls is read as motor impairment.

The test system of a further data set is Male CF1 mice. In words: Protection from pentylenetetrazole-induced seizures. The data set is classed as in vivo, mouse. The conditions noted are these: for PTZ Seizures, effective dose: PO 60 min before pentylenetetrazole 125 mg/kg s.c.; for anticonvulsant effects against PTZ-induced seizures: PTZ 125 mg/kg. Here is the method:
Protection from Pentylenetetrazole-Induced Seizures
Male CF1 mice weighing 20-22 g at the time of the experiment were purchased from Charles River Laboratories (Wilmington, Mass.). Pentylenetetrazole (Sigma Chemical Co.) was administered at 125 mg/kg s.c. The number of animals surviving was recorded at 30 minutes and 60 minutes after administration of pentylenetetrazole.
Drug Administration: All drugs were administered PO 60 minutes before administration of pentyenetetrazole.
Data Analysis: The data are presented as the percent of animals protected from death. The data were analyzed by Chi Square statistics. The significance level was set at p<0.05.
Mice treated with certain compounds of the present invention were subjected to pentylenetetrazole (PTZ) at 125 mg/kg to induce seizures. The percent of animals protected from death within one hour of PTZ was measured.

The target of the next data set is GABAA/α5 receptors (Homo sapiens, UniProt P18507+P31644). The conditions noted are these: cited from earlier work.
Another data set has as its target GABAA/α2 (Homo sapiens, UniProt P18507+P47869). The conditions noted are these: cited from earlier work.
Another data set addresses GABAA/α3 (Homo sapiens, UniProt P18507+P34903). The following applies: cited from earlier work.
For another data set, the target named is GABAA/α1 receptors (Homo sapiens, UniProt P14867+P18507). The following applies: cited from earlier work.
The test system of data set [3] is Male Sprague-Dawley rats. In words: Discriminative stimulus effects of chlordiazepoxide in rats (drug discrimination). The conditions noted are these: for CDP-like effects (drug discrimination): compared with diazepam or triazolam; for Antianxiety/abuse liability: ratio of lowest effective anxiolytic dose (situational anxiety) and lowest effective dose producing chlordiazepoxide-like effects in drug discrimination.

The values below come from patent publication US7618958B2, “Stereospecific anxiolytic and anticonvulsant agents with reduced muscle-relaxant, sedative-hypnotic and ataxic effects” (WISYS Technology Foundation, Inc., priority 2004, dated 2009).

Chain of GABAA/α2 (P47869 29-451): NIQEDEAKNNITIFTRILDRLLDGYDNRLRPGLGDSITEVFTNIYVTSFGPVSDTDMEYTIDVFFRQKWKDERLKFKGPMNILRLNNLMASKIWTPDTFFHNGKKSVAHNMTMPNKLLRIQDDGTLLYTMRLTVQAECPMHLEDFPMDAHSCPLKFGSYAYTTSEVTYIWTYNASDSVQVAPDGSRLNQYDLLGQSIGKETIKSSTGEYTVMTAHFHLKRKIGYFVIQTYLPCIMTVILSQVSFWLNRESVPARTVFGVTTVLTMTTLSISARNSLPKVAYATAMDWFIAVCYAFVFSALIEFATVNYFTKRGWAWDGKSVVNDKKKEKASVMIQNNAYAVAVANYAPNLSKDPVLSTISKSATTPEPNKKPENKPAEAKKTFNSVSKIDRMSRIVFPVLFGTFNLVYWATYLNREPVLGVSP
Chain of GABAA/α2 (P28472 26-473 partner): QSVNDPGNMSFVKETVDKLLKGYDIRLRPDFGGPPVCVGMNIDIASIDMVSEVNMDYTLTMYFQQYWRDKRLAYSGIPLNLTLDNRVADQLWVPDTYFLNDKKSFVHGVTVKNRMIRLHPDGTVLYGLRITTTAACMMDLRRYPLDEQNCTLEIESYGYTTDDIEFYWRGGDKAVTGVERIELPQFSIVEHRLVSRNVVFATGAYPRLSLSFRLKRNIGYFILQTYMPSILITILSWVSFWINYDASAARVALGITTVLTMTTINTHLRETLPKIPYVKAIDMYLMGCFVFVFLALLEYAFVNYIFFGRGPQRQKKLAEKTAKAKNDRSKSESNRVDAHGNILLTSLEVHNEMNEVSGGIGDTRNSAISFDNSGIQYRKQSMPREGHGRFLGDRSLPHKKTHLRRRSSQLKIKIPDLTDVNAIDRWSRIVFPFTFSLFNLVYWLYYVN
Chain of GABAA/α2 (P18507 40-475): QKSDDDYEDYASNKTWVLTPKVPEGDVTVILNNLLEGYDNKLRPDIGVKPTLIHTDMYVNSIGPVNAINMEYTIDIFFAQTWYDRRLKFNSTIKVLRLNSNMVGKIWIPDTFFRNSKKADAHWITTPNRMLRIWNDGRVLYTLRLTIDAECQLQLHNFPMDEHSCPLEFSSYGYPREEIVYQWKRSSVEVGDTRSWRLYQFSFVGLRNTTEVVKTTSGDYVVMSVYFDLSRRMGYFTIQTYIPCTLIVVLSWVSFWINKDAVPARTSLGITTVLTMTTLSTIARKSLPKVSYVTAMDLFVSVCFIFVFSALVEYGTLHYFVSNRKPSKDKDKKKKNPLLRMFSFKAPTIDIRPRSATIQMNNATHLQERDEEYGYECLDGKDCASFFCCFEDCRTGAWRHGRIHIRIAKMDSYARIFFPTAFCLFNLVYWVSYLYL
Chain of GABAA/α3 (P34903 29-492): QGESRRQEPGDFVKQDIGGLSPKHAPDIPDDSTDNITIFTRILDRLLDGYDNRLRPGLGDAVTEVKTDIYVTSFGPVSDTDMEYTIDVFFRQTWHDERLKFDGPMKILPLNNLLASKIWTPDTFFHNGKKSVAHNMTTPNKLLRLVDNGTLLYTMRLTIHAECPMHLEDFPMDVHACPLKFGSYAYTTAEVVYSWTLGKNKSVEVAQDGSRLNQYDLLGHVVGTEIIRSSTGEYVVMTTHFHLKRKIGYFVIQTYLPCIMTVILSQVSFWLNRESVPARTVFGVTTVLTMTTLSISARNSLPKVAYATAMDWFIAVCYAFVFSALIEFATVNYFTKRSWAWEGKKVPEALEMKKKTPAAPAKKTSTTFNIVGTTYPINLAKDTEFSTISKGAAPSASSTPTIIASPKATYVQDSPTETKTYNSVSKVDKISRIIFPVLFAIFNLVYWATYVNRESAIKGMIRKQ
Chain of GABAA/α3 (P28472 26-473 partner): as the sequence (P28472 26-473 partner) above
Chain of GABAA/α3 (P18507 40-475): as the sequence (P18507 40-475) above
Chain of GABAA/α5 receptors (P31644 32-462): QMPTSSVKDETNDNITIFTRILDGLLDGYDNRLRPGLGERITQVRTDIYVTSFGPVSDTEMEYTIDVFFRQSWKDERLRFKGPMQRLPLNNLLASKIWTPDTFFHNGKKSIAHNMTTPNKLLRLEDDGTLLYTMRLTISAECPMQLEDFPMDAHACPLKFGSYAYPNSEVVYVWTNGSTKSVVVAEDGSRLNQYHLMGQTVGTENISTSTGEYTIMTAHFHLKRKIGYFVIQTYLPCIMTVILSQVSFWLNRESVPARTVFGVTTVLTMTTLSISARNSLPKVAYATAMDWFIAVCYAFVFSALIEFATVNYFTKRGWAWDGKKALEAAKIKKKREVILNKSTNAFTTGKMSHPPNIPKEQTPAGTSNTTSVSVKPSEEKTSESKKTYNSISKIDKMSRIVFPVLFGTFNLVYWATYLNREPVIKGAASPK
Chain of GABAA/α5 receptors (P28472 26-473 partner): as the sequence (P28472 26-473 partner) above
Chain of GABAA/α5 receptors (P18507 40-475): as the sequence (P18507 40-475) above
Chain of GABAA/α1 receptors (P14867 28-456): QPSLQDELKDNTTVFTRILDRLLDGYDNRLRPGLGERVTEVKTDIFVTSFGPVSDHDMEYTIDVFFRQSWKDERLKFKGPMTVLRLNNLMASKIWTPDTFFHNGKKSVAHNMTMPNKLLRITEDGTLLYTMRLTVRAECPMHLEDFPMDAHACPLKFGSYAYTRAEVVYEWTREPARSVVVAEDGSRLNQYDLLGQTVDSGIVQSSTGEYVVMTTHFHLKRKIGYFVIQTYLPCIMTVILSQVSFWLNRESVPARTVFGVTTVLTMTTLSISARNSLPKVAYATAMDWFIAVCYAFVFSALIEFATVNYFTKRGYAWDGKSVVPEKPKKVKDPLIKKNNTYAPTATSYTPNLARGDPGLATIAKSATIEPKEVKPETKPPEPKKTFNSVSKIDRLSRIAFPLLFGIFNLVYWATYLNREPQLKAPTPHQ
Chain of GABAA/α1 receptors (P28472 26-473 partner): as the sequence (P28472 26-473 partner) above
Chain of GABAA/α1 receptors (P18507 40-475): as the sequence (P18507 40-475) above

As for `C#Cc1ccc2c(c1)C(c1ccccc1)=NCC(=O)N2C` [QH-ii-066, 1-Methyl-7-acetyleno-5-phenyl-1,3-dihydro-benzo [e]-1,4-diazepin-2-one], in the data set on Male Sprague-Dawley rats [1], the “sedative or hypnotic effects (locomotor activity)” value (“sedative or hypnotic effects” for short) is listed as “less effective in producing sedative or hypnotic effects than diazepam or triazolam” and the Antianxiety/sedation was 100. For the same molecule, in the data set with Male Sprague-Dawley rats [2], the “ataxia (rotorod)” value was “less potent in producing ataxia than diazepam or triazolam” and the Antianxiety/ataxia is above 100. For the same molecule, in the data set on Male CF1 mice, the “PTZ Seizures, effective dose” value was below 30 mg/kg; the “anticonvulsant effects against PTZ-induced seizures” value (shortened to “anticonvulsant effects”) was “anticonvulsant effects against PTZ-induced seizures at doses comparable to those for diazepam and triazolam”. Besides, the Ki at GABAA/α5 receptors was below 10 nM. The Ki at GABAA/α2 is below 50 nM. Moreover, on GABAA/α3, the Ki was below 50 nM. Further, the inhibition constant (Ki) on GABAA/α1 receptors was above 70 nM. Further, in the data set with Male Sprague-Dawley rats [3], the “CDP-like effects (drug discrimination)” value is on record as “less potent in producing CDP-like effects than diazepam or triazolam” and the Antianxiety/abuse liability is recorded as 30.
Consider `Cc1nnc2n1-c1ccc(Cl)cc1C(c1ccccc1Cl)=NC2` [Triazolam, reference compound], for which the Antianxiety/sedation with Male Sprague-Dawley rats [1] came to 300. In the data set on Male Sprague-Dawley rats [2], the Antianxiety/ataxia is recorded as 100. Besides, the “PTZ Seizures, effective dose” value in the data set on Male CF1 mice is listed as below 1.0 mg/kg. Also, in the data set with Male Sprague-Dawley rats [3], the Antianxiety/abuse liability came out at 30.
Regarding `C#Cc1ccc2c(c1)C(c1ccccc1)=NCc1c(C(=O)OCC)ncn1-2` [XHe-ii-053, Ethyl 8-acetylenyl-6-phenyl-4H-benzo[f]imidazo[1,5-a][1,4]diazepine-3-carboxylate], in the data set with Male Sprague-Dawley rats [1], the “sedative or hypnotic effects” value is listed as “less effective in producing sedative or hypnotic effects than diazepam or triazolam” and the Antianxiety/sedation is above 300. In addition, in the data set on Male Sprague-Dawley rats [2], the “ataxia (rotorod)” value was “less potent in producing ataxia than diazepam or triazolam” and the Antianxiety/ataxia is given as above 300. Moreover, in the data set on Male CF1 mice, the “PTZ Seizures, effective dose” value was “≦100 mg/kg” and the “anticonvulsant effects” value is “effective against PTZ-induced seizures”. For the same molecule, in the data set on Male Sprague-Dawley rats [3], the “CDP-like effects (drug discrimination)” value is reported as “less potent in producing CDP-like effects than diazepam or triazolam” and the Antianxiety/abuse liability is reported as above 300.
For `C#Cc1ccc2c(c1)C(c1ccccc1Cl)=NCc1nnc(C)n1-2` [XLi-JY-DMH, 8-Acetyleno-5-(2′-chlorophenyl)-1-methyl-4H-s-triazolo-[4,3-a]-1,4-benzodiazepine], in the data set with Male Sprague-Dawley rats [1], the “sedative or hypnotic effects” value is given as “less effective in producing sedative or hypnotic effects than diazepam or triazolam” and the Antianxiety/sedation was 10000. Further, in the data set on Male Sprague-Dawley rats [2], the “ataxia (rotorod)” value was “less potent in producing ataxia than diazepam or triazolam” and the Antianxiety/ataxia is on record as 10000. In the data set on Male CF1 mice, the “PTZ Seizures, effective dose” value is reported as below 1.0 mg/kg; the “anticonvulsant effects” value is “anticonvulsant effects against PTZ-induced seizures at doses comparable to those for diazepam and triazolam”. In the data set with Male Sprague-Dawley rats [3], the “CDP-like effects (drug discrimination)” value is “less potent in producing CDP-like effects than diazepam or triazolam” and the Antianxiety/abuse liability is on record as 1000.

By Ki is commonly meant the dissociation constant of the complex between target and ligand, obtained from inhibition or displacement.
